The supplement of paper PMC10307832

Columns and labels:
Test in all cases: relative viability (nuclei count vs DMSO), 5 days (fraction); higher = more cells survive
SGI-1776 = compound: CN1CCC(CNc2ccc3ncc(-c4cccc(OC(F)(F)F)c4)n3n2)CC1 [SGI-1776]
Summary of the method: (§1)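 Hoechst staining, done together with fixation and permeabilisation, marked nuclei for 4× imaging and MetaXpress counting. This followed 5 days without medium change after lung cancer cell lines, kept overnight at 37 °C in 1536-well plates, were pinned with five library-drug doses (not always all listed) spaced by √10 on vehicle-anchored plates. Viability is the ratio of treated-well to vehicle-well nuclei, expressed as a median across plates. Plates passed only at control CV below 25% with at least one doubling.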

[1] = compound: C1COCCN1C2=NC(=NC3=C2OC4=C3C=CC=N4)C5=CC(=CC=C5)NC(=O)C6=CN=C(C=C6)N
Summary of the method: as §1

Entinostat = compound: Nc1ccccc1NC(=O)c1ccc(CNC(=O)OCc2cccnc2)cc1 [Entinostat]
Summary of the method: as §1

[2] = compound: C1COCCN1C2=NC(=NC3=C2OC4=C3C=CC=N4)C5=CC(=CC=C5)NC(=O)C6=CN=C(C=C6)N + COc1cc2c(Oc3ccc(NC(=O)C4(C(=O)Nc5ccc(F)cc5)CC4)cc3F)ccnc2cc1OCCCN1CCOCC1 [Foretinib] (partner 0.25 µM)
Summary of the method: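 Nuclei were stained with Hoechst during a one-step fixation (final 0.05% Triton X-100, 1% formaldehyde, 1 ug/ml Hoechst) carried out 5 days after dosing, then counted on 4× images. The cells, lung cancer lines in 1536-well plates, had been dosed by pin tool the day after seeding with one drug alone or a fixed anchor-drug dose plus five library-drug doses (not always all listed) in √10 steps. Relative viability is the nuclei count in treated wells divided by that in vehicle wells, and each value is the median of duplicate plates.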

Cell Line	relative viability (SGI-1776; 0.08 µM)	relative viability (SGI-1776; 0.8 µM)	relative viability (SGI-1776; 2.53 µM)	relative viability (SGI-1776; 8 µM)	relative viability ([1]; 0.02 µM)	relative viability ([1]; 0.06325 µM)	relative viability ([1]; 0.2 µM)	relative viability ([1]; 0.6325 µM)	relative viability ([1]; 2 µM)	relative viability (Entinostat; 0.02 µM)	relative viability (Entinostat; 0.06325 µM)	relative viability (Entinostat; 0.2 µM)	relative viability (Entinostat; 0.6325 µM)	relative viability (Entinostat; 2 µM)	relative viability ([2]; first compound 0.02 µM)	relative viability ([2]; first compound 0.06325 µM)	relative viability ([2]; first compound 0.2 µM)	relative viability ([2]; first compound 0.6325 µM)	relative viability ([2]; first compound 2 µM)
SW 900	0.891	1.01	0.746	0.526	0.759	1.01	0.87	0.784	0.76	0.92	0.944	0.92	0.748	0.519	0.944	0.93	0.751	1.5	0.735
NCI-H1944	0.968	1.06	0.981	0.739	0.96	1.01	0.931	0.985	0.918	0.933	0.851	0.714	0.321	0.261	0.898	0.916	0.942	0.772	0.731
NCI-H838	0.928	0.994	0.936	0.645	0.852	0.947	0.917	0.791	0.57	1.11	1.08	1.08	0.733	0.406	1.06	0.987	0.952	0.884	0.487
NCI-H1651	1	0.999	0.971	0.929	0.994	0.994	0.978	0.951	0.8	1.02	0.971	1.02	0.908	0.692	0.784	0.786	0.723	0.821	0.551
HCC-827	1.08	1.09	1.13	0.968	1.03	1.07	1.07	1.1	0.941	1.01	0.986	0.954	0.657	0.535	1.01	1.06	0.99	1.08	0.97
HCC-366	0.957	1.02	0.989	1.02	1.03	1.07	1.05	1.04	0.738	1.03	1.09	0.943	0.515	0.154	0.946	0.931	0.913	0.892	0.714
HARA	1.02	1.13	1	0.75	1.06	0.834	1.02	0.976	0.908	0.955	1.06	1.18	0.805	0.488	0.953	1.11	1.09	0.882	0.528
NCI-H441	0.913	1.12	1.15	0.817	1.1	1.14	1.08	0.888	0.443	1.01	1.18	0.882	0.35	0.218	1.13	0.918	0.786	0.84	0.493
NCI-H1299	1.03	1.01	0.996	0.946	0.991	1.1	1.03	1.02	0.868	1.03	1	0.994	0.85	0.727	1.01	1.08	1.1	1.05	0.806
RERF-LC-KJ	1.03	1	0.957	0.843	1.01	1.05	0.973	0.928	0.743	0.952	0.986	0.922	0.631	0.297	0.879	0.953	0.888	0.883	0.624
CAL-12T	1.06	1.14	0.913	0.996	0.937	1.05	0.972	1.02	0.788	1.04	1.05	1.2	0.982	0.691	1.12	1.49	1.19	1.21	0.941
COR-L 105	1.09	1.01	0.949	0.722	0.868	0.717	0.751	0.695	0.591	0.947	1.14	1.06	0.747	0.371	0.915	1.28	0.764	0.969	0.777
NCI-H2405	1.04	1.08	0.793	0.826	0.987	1.05	0.97	0.953	0.779	1.03	1.15	0.972	0.915	0.609	0.99	1.04	1.07	1.02	0.981
NCI-H2228	0.966	1.02	0.808	0.71	0.899	1.16	1.01	0.92	0.418	0.852	1.01	0.944	0.625	0.359	0.911	0.855	1	0.836	0.446
PC-14	1.09	1.03	0.972	0.491	0.974	1.14	1.03	0.852	0.525	1.08	1.11	1.06	0.424	0.14	0.965	1.17	1.04	0.977	0.755
IA-LM	0.999	1.02	0.97	0.87	0.895	0.924	0.716	0.847	0.442	0.975	1.01	1.08	0.887	0.651	0.999	1.38	0.867	0.922	0.326
A549	0.992	1.01	0.959	0.795	1.05	1.1	0.97	0.991	0.471	1.02	1.03	0.901	0.842	0.508	1.05	0.987	0.988	1.06	0.225
